Key:
[1] = tested on: insulin-naïve subjects with type 2 diabetes; conditions: in vivo
Source text: This was a multinational (conducted in the US, Spain, Finland, and Germany), Phase 3b, multi-center, two-armed, parallel group, open-label, randomized, treat-to-target study that compared the efficacy and safety of IDeg OD [IDeg 100 U/mL, FlexTouch® pen, Novo Nordisk A/S, Bagsværd, Denmark], adjusted using two different titration algorithms in combination with metformin. The trial consisted of a 26-week period; total study duration was approximately 28 weeks (including 1 week for screening and a 7-day follow-up period). […]
Adverse events (AEs) and hypoglycemic episodes were documented throughout the study, with confirmed hypoglycemia defined as episodes of severe hypoglycemia (requiring assistance from another person) and episodes with PG value <3.1 mmol/L (56 mg/dL). […] Laboratory safety variables, insulin dose and body weight were recorded at pre-specified intervals.
Change from baseline in HbA1c after 26 weeks was analyzed using an analysis of variance (ANOVA) method with treatment, region, sex and antidiabetic therapy at screening as fixed factors, and age and baseline HbA1c as covariates. […] Change in FPG and change in body weight were analyzed using an ANOVA model similar to that used for the primary analysis, but with the relevant baseline value as covariate for each measure. […]

[2] = tested on: people with Type 2 diabetes; conditions: in vivo; cited from earlier work
[3] = tested on: insulin-naïve subjects with type 2 diabetes; assay: BEGIN ONCE SIMPLE USE 26-week randomized treat-to-target trial: HbA1c / glycemic control; format: in vivo, human; conditions: for HbA1c change from baseline to Week 26 / HbA1c at Week 26: IDeg OD + metformin; for Patients achieving HbA1c<7% without confirmed hypoglycemia / Subjects achieving HbA1c<7.0% at end-of-trial: 26 weeks
Source text: (§1) This 26-week, multi-center, open-label, randomized, treat-to-target study compared the efficacy and safety of IDeg administered once daily in combination with metformin in insulin-naïve subjects with type 2 diabetes using two different patient-driven titration algorithms: a “Simple” algorithm (IDegSimple), with dose adjustments based on one pre-breakfast SMBG measurement (N=111) versus a “Step-wise” algorithm (IDegStep-wise), with adjustments based on three consecutive pre-breakfast SMBG values (N=111). IDeg was administered using the FlexTouch® insulin pen (Novo Nordisk A/S, Bagsværd, Denmark), with once-weekly dose titration in both groups.
The study was conducted according to the Declaration of Helsinki (2008) and ICH Good Clinical Practice (1996) guidelines, with prior approval by appropriate ethics committees and patient consent obtained in writing prior to the start of any study-related activities. Eligible participants included insulin-naïve men or women ≥18 years of age, with type 2 diabetes, HbA1c 7.0-10.0% (inclusive), and body mass index (BMI) ≤45.0 kg/m^2, who were treated with ≥1000 mg/day metformin alone or in combination with one or two other oral antidiabetic medications (OADs) (including a sulfonylurea [SU] or glinide, dipeptidyl peptidase-4 [DPP-4] inhibitors, α-glucosidase inhibitors or thiazolidinediones [TZDs]), with unchanged dosing for ≥12 weeks prior to randomization. […] Subjects could be withdrawn from the trial due to withdrawal of consent, not fulfilling inclusion/exclusion criteria (randomized in error), non-compliance, or at the discretion of the investigator due to a safety concern. Subjects who were withdrawn after randomization were not to be replaced. This trial is registered at clinicaltrials.gov: NCT01326026.
(§2) HbA1c was analyzed using a Bio-Rad high-performance liquid chromatography method at Visits 1 (screening), 2 (randomization), 14 (Week 12) and 28 (Week 26). Fasting plasma glucose (FPG) blood samples were assayed using a hexokinase-UV method at Visits 2, 14 and 28. At the first visit, subjects were provided with a glucose meter for SMBG measurement and instructions for use; blood glucose was measured with test strips calibrated to plasma glucose to obtain PG-equivalent values presented in this report. Subjects performed SMBG measurements before breakfast weekly after randomization and also performed an 8-point SMBG profile prior to Visits 2, 14 and 28.

[4] = tested on: insulin-naïve subjects with type 2 diabetes; assay: BEGIN ONCE SIMPLE USE trial: adverse events; conditions: IDegStep-wise arm; 154 days after starting trial drug, liver metastasis, considered unlikely related to treatment
Source text: (§3) This was a multinational (conducted in the US, Spain, Finland, and Germany), Phase 3b, multi-center, two-armed, parallel group, open-label, randomized, treat-to-target study that compared the efficacy and safety of IDeg OD [IDeg 100 U/mL, FlexTouch® pen, Novo Nordisk A/S, Bagsværd, Denmark], adjusted using two different titration algorithms in combination with metformin. The trial consisted of a 26-week period; total study duration was approximately 28 weeks (including 1 week for screening and a 7-day follow-up period). After discontinuing all OADs other than metformin, subjects were randomized 1:1 by an interactive voice/web response system (IV/WRS) to IDegSimple or IDegStep-wise insulin self-titration algorithms, as defined below. Subjects were instructed to self-titrate in accordance with their respective algorithms and continue with their pre-trial metformin dose. At randomization, Week 4 and Week 12, subjects in both treatment arms received diet and exercise counselling by an HCP.
(§4) Adverse events (AEs) and hypoglycemic episodes were documented throughout the study, with confirmed hypoglycemia defined as episodes of severe hypoglycemia (requiring assistance from another person) and episodes with PG value <3.1 mmol/L (56 mg/dL). Nocturnal confirmed hypoglycemic episodes were those occurring between 00:01 h and 05:59 h (inclusive). Laboratory safety variables, insulin dose and body weight were recorded at pre-specified intervals.
(§5) Treatment-emergent AEs, hypoglycaemic episodes, laboratory parameters, physical examination, electrocardiogram (ECG), fundoscopy/fundusphotography, vital signs, PRO (Device-Specific questionnaires I and II) and insulin dose were summarized with descriptive statistics.
(§6) Treatment-emergent events occurring after first exposure and no later than 7 days after last exposure. Safety analysis set. n number of patients with events, % proportion of patients with events, E number of events, R number of events per 100 patient-years.

[5] = tested on: insulin-naïve subjects with type 2 diabetes; assay: BEGIN ONCE SIMPLE USE trial: fasting plasma glucose (hexokinase-UV); format: in vivo, human
Source text: as §1, §2

[6] = tested on: insulin-naïve subjects with type 2 diabetes; conditions: in vivo; remark: listed apart in the source
Source text: as §3, §4, §5, §6

[7] = tested on: patients with type 2 diabetes; conditions: self-adjusted dose every 3 days from mean of previous 3 days' SMBG; 6 months; cited from earlier work
[8] = tested on: people with Type 2 diabetes; conditions: INSIGHT; initial dose 10 units, increased by 1 unit each day until FPG ≤5.5 mmol/liter; cited from earlier work

LysB29(Nε-hexadecandioyl-γ-Glu) des(B30) human insulin [IDeg]
Severe hypoglycemic episodes [1]: One
Confirmed and nocturnal confirmed hypoglycemia rates with IDeg OD versus comparator insulin glargine [2]: lower than or similar to
HbA1c change from baseline to Week 26 ([3]; IDegSimple arm (Simple titration algorithm)): −1.09%
Patients achieving HbA1c<7% without confirmed hypoglycemia ([3]; IDegSimple arm): 40.6%
Subjects achieving HbA1c<7.0% at end-of-trial ([3]; IDegSimple arm): 56.8%
HbA1c at Week 26 ([3]; IDegSimple arm): 7.0%
HbA1c change from baseline to Week 26 ([3]; IDegStep-wise arm (Step-wise titration algorithm)): −0.93%
Patients achieving HbA1c<7% without confirmed hypoglycemia ([3]; IDegStep-wise arm): 34.6%
Subjects achieving HbA1c<7.0% at end-of-trial ([3]; IDegStep-wise arm): 41.4%
HbA1c at Week 26 ([3]; IDegStep-wise arm): 7.2%
Estimated treatment difference (IDegSimple−IDegStep-wise) in HbA1c change ([3]; Week 26, 95% CI [−0.39, 0.07]): −0.16 %-points
Non-inferiority of IDegSimple to IDegStep-wise in lowering HbA1c ([3]; Week 26, non-inferiority limit 0.4%): non-inferior
Deaths [4]: One
Fasting plasma glucose at Week 26 ([5]; IDegSimple arm): 6.1 mmol/L
Fasting plasma glucose at Week 26 ([5]; IDegStep-wise arm): 6.8 mmol/L
Estimated treatment difference (IDegSimple−IDegStep-wise) in FPG ([5]; Week 26, 95% CI [−1.30, 0.17]): -0.57 mmol/L
Headache: N number of patients with events [6]: 8
SAE neoplasm event [6]: astrocytoma
SAEs: E number of events [6]: 8
SAEs: R number of events per 100 patient-years [6]: 15 events per 100 patient-years

insulin detemir
HbA1c versus standard-of-care, physician-driven adjustments [7]: significantly lower HbA1c

insulin glargine
End HbA1c [8]: 7.0%

Source: patent publication US12226458B2, “System for providing an up-to-date and long-acting or ultra-long-acting insulin dose guidance recommendation to treat diabetes mellitus” (Novo Nordisk A/S, priority 2018, dated 2025)
